{
  "source": "patent US20260285850A1",
  "about": "“SUBSTITUTED OXAZOLIDINONES AND IMIDAZOLINONES AS HERBICIDES” (FMC CORPORATION, priority 2023, published 2026)",
  "format_in_all_cases": "in vivo",
  "key": {"[1]": {"test_system": "barnyardgrass (Echinochloa crus-galli)", "test": "Test A preemergence soil spray, visual injury rating 0-100", "conditions": "10 days", "outline": "(§1)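 Visual injury, scored 0-100 (100 = complete control) against untreated plants, 10 days after greenhouse treatment. Test chemicals in surfactant-containing non-phytotoxic solvent were applied in loam soil and sand, as a preemergence soil spray on seeds or postemergence to plants at the one- to two-leaf stage.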"}, "[2]": {"test_system": "ragweed (common ragweed, Ambrosia artemisiifolia)", "test": "Test A preemergence soil spray, visual injury rating 0-100", "conditions": "10 days", "outline": "as §1"}, "[3]": {"test_system": "palmer (palmer amaranth, palmer pigweed, Amaranthus palmeri)", "test": "Test A preemergence soil spray, visual injury rating 0-100", "conditions": "10 days", "outline": "as §1"}, "[4]": {"test_system": "green foxtail (Setaria viridis)", "test": "Test A preemergence soil spray, visual injury rating 0-100", "conditions": "10 days", "outline": "as §1"}, "kochia (Bassia scoparia) [5]": {"test_system": "kochia (Bassia scoparia)", "test": "Test A preemergence soil spray, visual injury rating 0-100", "conditions": "10 days", "outline": "as §1"}, "corn (Zea mays) [6]": {"test_system": "corn (Zea mays)", "test": "Test A preemergence soil spray, visual injury rating 0-100", "conditions": "10 days", "outline": "as §1"}, "[7]": {"test_system": "wheat (Triticum aestivum)", "test": "Test A preemergence soil spray, visual injury rating 0-100", "conditions": "10 days", "outline": "as §1"}, "soybean (Glycine max) [8]": {"test_system": "soybean (Glycine max)", "test": "Test A preemergence soil spray, visual injury rating 0-100", "conditions": "10 days", "outline": "as §1"}, "[9]": {"test_system": "ryegrass, Italian (italian ryegrass, Lolium multiflorum)", "test": "Test A preemergence soil spray, visual injury rating 0-100", "conditions": "10 days", "outline": "as §1"}, "[10]": {"test_system": "blackgrass (Alopecurus myosuroides)", "test": "Test A preemergence soil spray, visual injury rating 0-100", "conditions": "10 days", "outline": "as §1"}, "[11]": {"test_system": "oat, wild (wild oat, Avena fatua)", "test": "Test A preemergence soil spray, visual injury rating 0-100", "conditions": "10 days", "outline": "as §1"}, "[12]": {"test_system": "ducksalad (Heteranthera limosa)", "test": "Test B flooded paddy test, visual plant response rating 0-100", "conditions": "250 g ai/ha, Flood, applied to paddy water, evaluated after 13 days", "outline": "(§2)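 In this flooded assay, 2-leaf seedlings received compound through the water layer, kept at 3 cm over the soil. Plants were held 13 days in a greenhouse and then visually compared with control pots.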"}, "[13]": {"test_system": "barnyardgrass (Echinochloa crusgalli)", "test": "Test B flooded paddy test, visual plant response rating 0-100", "conditions": "250 g ai/ha, Flood, applied to paddy water, evaluated after 13 days", "outline": "as §2"}, "[14]": {"test_system": "sedge, umbrella (small-flower umbrella sedge, Cyperus difformis)", "test": "Test B flooded paddy test, visual plant response rating 0-100", "conditions": "250 g ai/ha, Flood, applied to paddy water, evaluated after 13 days", "outline": "as §2"}, "rice (Oryza sativa)": {"test_system": "rice (Oryza sativa)", "test": "Test B flooded paddy test, visual plant response rating 0-100", "conditions": "250 g ai/ha, Flood, applied to paddy water, evaluated after 13 days", "outline": "as §2"}, "[15]": {"test_system": "horseweed (Erigeron canadensis)", "test": "Test A postemergence application, visual injury rating 0-100", "outline": "as §1"}, "[16]": {"test_system": "barnyardgrass (Echinochloa crus-galli)", "test": "Test A postemergence application, visual injury rating 0-100", "outline": "as §1"}, "[17]": {"test_system": "ragweed (common ragweed, Ambrosia artemisiifolia)", "test": "Test A postemergence application, visual injury rating 0-100", "outline": "as §1"}, "[18]": {"test_system": "palmer (palmer amaranth, palmer pigweed, Amaranthus palmeri)", "test": "Test A postemergence application, visual injury rating 0-100", "outline": "as §1"}, "[19]": {"test_system": "green foxtail (Setaria viridis)", "test": "Test A postemergence application, visual injury rating 0-100", "outline": "as §1"}, "kochia (Bassia scoparia) [20]": {"test_system": "kochia (Bassia scoparia)", "test": "Test A postemergence application, visual injury rating 0-100", "outline": "as §1"}, "corn (Zea mays) [21]": {"test_system": "corn (Zea mays)", "test": "Test A postemergence application, visual injury rating 0-100", "outline": "as §1"}, "[22]": {"test_system": "wheat (Triticum aestivum)", "test": "Test A postemergence application, visual injury rating 0-100", "outline": "as §1"}, "soybean (Glycine max) [23]": {"test_system": "soybean (Glycine max)", "test": "Test A postemergence application, visual injury rating 0-100", "outline": "as §1"}, "[24]": {"test_system": "ryegrass, Italian (italian ryegrass, Lolium multiflorum)", "test": "Test A postemergence application, visual injury rating 0-100", "outline": "as §1"}, "[25]": {"test_system": "blackgrass (Alopecurus myosuroides)", "test": "Test A postemergence application, visual injury rating 0-100", "outline": "as §1"}, "[26]": {"test_system": "oat, wild (wild oat, Avena fatua)", "test": "Test A postemergence application, visual injury rating 0-100", "outline": "as §1"}, "[27]": {"test_system": "galium (catchweed bedstraw, Galium aparine)", "test": "Test A postemergence application, visual injury rating 0-100", "conditions": "Postemergence, 16 g ai/ha, greenhouse 10 days; 0 no effect, 100 complete control", "outline": "as §1"}, "[28]": {"conditions": "62 g ai/ha, 0 = no effect, 100 = complete control"}, "[29]": {"conditions": "62 g ai/ha, postemergence, 10 days, 0 = no effect, 100 = complete control"}, "[30]": {"conditions": "Postemergence, 16 g ai/ha, greenhouse 10 days, 0 no effect, 100 complete control"}},
  "data": [
    {"compound": "CSCCOC(=O)C1=CCC(NC(=O)C2(C)CN(c3cc(Cl)cc(Cl)c3)C(=O)O2)C1", "note": "(stereo not drawn) [Compound 146]", "values": [
      {"measurement": "Barnyardgrass plant response rating", "setting": "[1]; 16 g ai/ha, 0 to 100 scale", "value": 0},
      {"measurement": "Barnyardgrass plant response rating (0-100)", "setting": "[1]; [28]", "value": 0},
      {"measurement": "Ragweed plant response rating", "setting": "[2]; 16 g ai/ha, 0 to 100 scale", "value": 0},
      {"measurement": "Ragweed plant response rating (0-100)", "setting": "[2]; [28]", "value": 0},
      {"measurement": "Pigweed, Palmer plant response rating", "setting": "[3]; 16 g ai/ha, 0 to 100 scale", "value": 0},
      {"measurement": "Pigweed, Palmer plant response rating (0-100)", "setting": "[3]; [28]", "value": 0},
      {"measurement": "Foxtail, Green plant response rating", "setting": "[4]; 16 g ai/ha, 0 to 100 scale", "value": 0},
      {"measurement": "Foxtail, Green plant response rating (0-100)", "setting": "[4]; [28]", "value": 0},
      {"measurement": "Kochia plant response rating", "setting": "kochia (Bassia scoparia) [5]; 16 g ai/ha, 0 to 100 scale", "value": 0},
      {"measurement": "Kochia plant response rating (0-100)", "setting": "kochia (Bassia scoparia) [5]; [28]", "value": 0},
      {"measurement": "Corn plant response rating", "setting": "corn (Zea mays) [6]; 16 g ai/ha, 0 to 100 scale", "value": 0},
      {"measurement": "Corn plant response rating (0-100)", "setting": "corn (Zea mays) [6]; [28]", "value": 0},
      {"measurement": "Wheat plant response rating", "setting": "[7]; 16 g ai/ha, 0 to 100 scale", "value": 0},
      {"measurement": "Wheat plant response rating (0-100)", "setting": "[7]; [28]", "value": 0},
      {"measurement": "Soybean plant response rating", "setting": "soybean (Glycine max) [8]; 16 g ai/ha, 0 to 100 scale", "value": 0},
      {"measurement": "Soybean plant response rating (0-100)", "setting": "soybean (Glycine max) [8]; [28]", "value": 0},
      {"measurement": "Ryegrass, Italian plant response rating", "setting": "[9]; 16 g ai/ha, 0 to 100 scale", "value": 0},
      {"measurement": "Ryegrass, Italian plant response rating (0-100)", "setting": "[9]; [28]", "value": 20},
      {"measurement": "Blackgrass plant response rating", "setting": "[10]; 16 g ai/ha, 0 to 100 scale", "value": 0},
      {"measurement": "Blackgrass plant response rating (0-100)", "setting": "[10]; [28]", "value": 0},
      {"measurement": "Oat, Wild plant response rating", "setting": "[11]; 16 g ai/ha, 0 to 100 scale", "value": 0},
      {"measurement": "Oat, Wild plant response rating (0-100)", "setting": "[11]; [28]", "value": 0},
      {"measurement": "Plant response rating, Ducksalad (0 to 100 scale, 0 is no effect and 100 is complete control)", "setting": "[12]", "value": 0},
      {"measurement": "Plant response rating, Barnyardgrass (0 to 100 scale, 0 is no effect and 100 is complete control)", "setting": "[13]", "value": 0},
      {"measurement": "Plant response rating, Sedge, Umbrella (0 to 100 scale, 0 is no effect and 100 is complete control)", "setting": "[14]", "value": 0},
      {"measurement": "Plant response rating, Rice (0 to 100 scale, 0 is no effect and 100 is complete control)", "setting": "rice (Oryza sativa)", "value": 0},
      {"measurement": "Horseweed plant response rating (0-100)", "setting": "[15]; [29]", "value": 10},
      {"measurement": "Horseweed plant response rating (0 to 100 scale)", "setting": "[15]; [30]", "value": 0},
      {"measurement": "Barnyardgrass plant response rating (0-100)", "setting": "[16]; [29]", "value": 20},
      {"measurement": "Barnyardgrass plant response rating (0 to 100 scale)", "setting": "[16]; [30]", "value": 0},
      {"measurement": "Ragweed plant response rating (0-100)", "setting": "[17]; [29]", "value": 0},
      {"measurement": "Ragweed plant response rating (0 to 100 scale)", "setting": "[17]; [30]", "value": 0},
      {"measurement": "Pigweed, Palmer plant response rating (0-100)", "setting": "[18]; [29]", "value": 0},
      {"measurement": "Pigweed, Palmer plant response rating (0 to 100 scale)", "setting": "[18]; [30]", "value": 0},
      {"measurement": "Foxtail, Green plant response rating (0-100)", "setting": "[19]; [29]", "value": 0},
      {"measurement": "Foxtail, Green plant response rating (0 to 100 scale)", "setting": "[19]; [30]", "value": 0},
      {"measurement": "Kochia plant response rating (0-100)", "setting": "kochia (Bassia scoparia) [20]; [29]", "value": 0},
      {"measurement": "Kochia plant response rating (0 to 100 scale)", "setting": "kochia (Bassia scoparia) [20]; [30]", "value": 0},
      {"measurement": "Corn plant response rating (0-100)", "setting": "corn (Zea mays) [21]; [29]", "value": 0},
      {"measurement": "Corn plant response rating (0 to 100 scale)", "setting": "corn (Zea mays) [21]; [30]", "value": 0},
      {"measurement": "Wheat plant response rating (0-100)", "setting": "[22]; [29]", "value": 0},
      {"measurement": "Wheat plant response rating (0 to 100 scale)", "setting": "[22]; [30]", "value": 0},
      {"measurement": "Soybean plant response rating (0-100)", "setting": "soybean (Glycine max) [23]; [29]", "value": 0},
      {"measurement": "Soybean plant response rating (0 to 100 scale)", "setting": "soybean (Glycine max) [23]; [30]", "value": 0},
      {"measurement": "Ryegrass, Italian plant response rating (0-100)", "setting": "[24]; [29]", "value": 0},
      {"measurement": "Ryegrass, Italian plant response rating (0 to 100 scale)", "setting": "[24]; [30]", "value": 0},
      {"measurement": "Blackgrass plant response rating (0-100)", "setting": "[25]; [29]", "value": 0},
      {"measurement": "Blackgrass plant response rating (0 to 100 scale)", "setting": "[25]; [30]", "value": 0},
      {"measurement": "Oat, Wild plant response rating (0-100)", "setting": "[26]; [29]", "value": 0},
      {"measurement": "Oat, Wild plant response rating (0 to 100 scale)", "setting": "[26]; [30]", "value": 0},
      {"measurement": "Galium plant response rating (0 to 100 scale)", "setting": "[27]", "value": 0}
    ]}
  ]
}
